For 54 compounds, EC50, IC50 and outcome results are on record in PubChem BioAssay AID179 (DTP/NCI, 2004).

The term EC50 denotes the concentration needed to bring the measured effect to its halfway point. One may read the IC50 as the concentration at which inhibition is half-maximal. Read a low IC50 as greater potency in that assay.

This assay deals with CEM cells HIV-1 protection, formazan growth assay. Nature of the assay: NCI AIDS Antiviral Assay. The note with it: for IC50: measured here: growth of uninfected CEM cells. The procedure, abridged: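 Protection of CEM cells against HIV-1 was scored from cell growth (soluble formazan) across five concentrations, with parallel uninfected cells. Lack of protection may reflect toxicity.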

Where “and” joins values, the source holds several entries; their conditions need not be identical. Identical values can stand only once. Calls of active or inactive are those of the source.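 How the source made its calls: active means compounds giving half or more protection of infected cells from virus-caused growth loss, again on retest; inactive means the rest.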 A value given as a limit tells only on which side of the number the result lay.

On to `COc1cc(/C=C/C2=C(C#N)C(=O)OC2(C)C)ccc1O`, for which the EC50 was over 126 µM and the IC50 is over 126 µM.

`O=C(O)c1csc(C(=O)O)c1`: the EC50 was 162 µM and the IC50 worked out at 759 µM. For the compound `COc1cc2c(cc1O)C(C)Cc1cc3c(cc1N(C)CC2)OCO3` (configuration not stated), the EC50 was over 117 µM and the IC50 amounted to 2.24 µM. `Cc1cc(N(CCC#N)CCC#N)ccc1/C=C(\NC(=O)/C=C/c1ccccc1)C(=O)Nc1ccccc1Cl`: the outcome was inactive. With `CN(C)CCNC(=O)Cn1ccc(=O)c2c([N+](=O)[O-])cccc21`, the EC50 was over 200 µM and the IC50 is over 200 µM. In turn, `Cc1cccc(CNc2ncnc3[nH]ncc23)c1` came in with an EC50 of over 200 µM and an IC50 of over 200 µM. In the case of `CC1Nc2c(ccc3ncccc23)C(=O)N1Nc1ccccc1` (configuration not stated), the EC50 is over 83.2 µM and the IC50 was found to be 60.3 µM.

As for `c1ccc(SC2CCCCO2)cc1` (configuration not stated), the result was inactive. Consider `Clc1cc2nn(C3CCCCO3)nc2cc1Cl` (configuration not stated), for which the EC50 was over 200 µM and the concentration for half-maximal inhibition (IC50) was over 200 µM. As to `CC1=CC[C@H](C[C@H](C#CCCCC2OCCO2)O[Si](C(C)C)(C(C)C)C(C)C)C(=O)CC1`, the EC50 is over 200 µM and the IC50 worked out at 9.77 µM. The like results for `CC1Cn2c(c(-c3ccccc3)c(=O)[nH]c2=O)O1` (configuration not stated) were, in that order, over 363 µM and over 363 µM. For `CCCCCCCCCCCCCCCCCCNC(=S)/N=C/c1c(O)cc(C)oc1=O`, in that order: over 200 µM and 32.4 µM. For `O=C1c2ccccc2C(=O)N1n1c(Cc2ccc([N+](=O)[O-])cc2)n[nH]c1=O`, in that order: over 200 µM and over 200 µM. For `N=C1/C(=C/c2ccccc2)C(=O)N=C2SC=NN12`, the EC50 is over 200 µM and the IC50 is over 200 µM. As for `O=C1NCCCNCCCNCCCNC(=O)c2cccc1n2`, the EC50 is over 200 µM and the IC50 came out at 186 µM. For `CON(C)c1nc(N)c(C#N)c(C#N)c1C#N`, in that order: over 200 µM and 35.5 µM. The like results for `CCOC(=O)c1cc2c(nc1NCc1ccccc1)C(=O)CCCC2` were, in that order, over 200 µM and 19.1 µM. For `O=S1c2ccccc2-c2ccccc21`, in that order: over 447 µM and over 447 µM. For `Cc1noc2c1CC(=O)c1ccccc1OC2`, the EC50 was over 389 µM and the IC50 was 224 µM. The like results for `CCc1ccccc1NC(=O)/C(CC(=O)c1c(C)n([O-])c2ccccc2[n+]1=O)=N\NS(=O)(=O)c1ccc(C)cc1` were, in that order, over 23.4 µM and 13.5 µM. For `O=C1C2CCCC3CCCC(C(=O)N1NC1CCCCC1)C32` (configuration not stated), in that order: over 200 µM and 107 µM.

In the case of `O=C1c2ccccc2SC[C@@H]2CCCN12`, the EC50 was over 407 µM and the IC50 was over 407 µM.

Regarding `ClC1=C(Cl)C(Cl)(Cl)c2c3c(c4c(c21)C(Cl)(Cl)C(Cl)=C4Cl)C(Cl)(Cl)C(Cl)=C3Cl`, the EC50 was over 8.71 µM and the IC50 is over 8.71 µM. As for `CCOC(=O)C1([Se]c2ccccc2)CCCC1=O` (configuration not stated), the EC50 is over 219 µM and the IC50 stood at 20.4 µM. `O[C@@H]1[C@H]2CC(OCc3ccccc3)C[C@H]2C[C@@H]1O` (some centres not stated): the EC50 was over 1000 µM and the IC50 is over 1000 µM.

Turning to `CO/C=C/C=C(\C#N)C(=O)OC`, the EC50 is 174 µM and the IC50 was over 200 µM. For `N/N=C(\c1nc2ccc(Cl)cc2[nH]c1=O)C(O)c1ccc(Cl)c(Cl)c1` (configuration not stated), in that order: over 245 µM and 20.4 µM. As to `O=C1/C(=C/c2ccccc2)CN(C(=O)Oc2ccc([N+](=O)[O-])cc2)C/C1=C\c1ccccc1`, the result was inactive. Regarding `CCOc1cc2c(cc1C(C)c1ccc(OC)cc1)OCO2` (configuration not stated), the EC50 is over 33.1 µM and the IC50 was 0.214 µM.

For `Cc1ccc(S(=O)(=O)N2CCN3C(=O)c4ccccc4C32c2ccc(F)cc2)cc1` (configuration not stated), the EC50 is over 200 µM and the IC50 turned out to be 31.6 µM. The like results for `Nn1c(=O)[nH]c2ncn(Cc3ccccc3)c2c1=O` were, in that order, over 200 µM and over 200 µM. The like results for `COc1cc2c(cc1OC)C(=O)/C(=C/c1ccccc1)C2` were, in that order, over 200 µM and 151 µM.

On to `O=C(CC(=O)N1N=C(c2ccccc2)C(N=Nc2ccc(Cl)cc2)C1=O)Nc1ccccc1Cl` (configuration not stated), for which the EC50 was over 38 µM and the IC50 was over 38 µM. Regarding `CN(C)C1C(=O)C(C(=O)NCNC(C=O)C(O)C(O)C(O)CO)=C(O)C2(O)C(=O)C3=C(O)c4c(O)cccc4C(C)(O)C3CC12` (configuration not stated), the EC50 is over 178 µM and the IC50 came out at 110 µM.

As to `O=[N+]([O-])c1cc(-c2nnc(C34CC5CC(CC(C5)C3)C4)o2)cc([N+](=O)[O-])c1`, the EC50 was over 200 µM and the IC50 was over 200 µM. As to `C[N+](C)(C)CC1CCCC(C[N+](C)(C)C)C1=O` (configuration not stated), the outcome was inactive. For `CC12CC[C@H](O)C(C)(C)[C@H]1CC[C@](C)(O)C2COc1ccc2ccc(=O)oc2c1` (some centres not stated), the EC50 was over 324 µM and the IC50 worked out at 288 µM. For `CCOC(=O)c1cc(C)nc2c1c(=O)n(-c1ccccc1)c(=O)n2CCCCN1CCN(c2ncccn2)CC1`, in that order: over 200 µM and 107 µM. The like results for `CCOC#CCCOCc1ccccc1` were, in that order, over 66.1 µM and over 66.1 µM. The like results for `N/N=C(/Cc1ccccc1)NNO` were, in that order, over 525 µM and 174 µM. Consider `Cc1ccc(S(=O)(=O)N/N=C(/CC(=O)c2c(C)n([O-])c3ccccc3[n+]2=O)C(=O)Nc2ccccc2C)cc1`, for which the EC50 is over 33.1 µM and the IC50 is over 33.1 µM. As for `Cc1cc(C)c(N)c(CO)c1`, the EC50 is over 200 µM; the IC50 was > 200 µM and 107 µM. Take `CCOC(=O)N1CCC2(CC1)C[C@](C)(C(C)=O)C(C)O2` (some centres not stated): the EC50 is over 200 µM and the IC50 was over 200 µM.

For `Cc1ccc(N=Nc2cc(=O)[nH]c(=O)[nH]2)cc1C`, the EC50 was over 200 µM and the half-maximal inhibitory concentration (IC50) is 3.98 µM.

In the case of `C[C@]12CC[C@H](O)CC1=CC[C@@H]1C2CC[C@]2(C)Nc3[nH]ncc3CC12` (some centres not stated), the result was inactive. For `O=C(/C=C/C(=O)c1cccs1)c1cccs1`, the EC50 was over 20 µM and the IC50 is 1.1 µM. Consider `CCCCN=Cc1c(O)c(O)c(C(C)C)c2cc(C)c(-c3c(C)cc4c(C(C)C)c(O)c(O)c(C=NCCCC)c4c3O)c(O)c12`, for which the outcome was inactive.

With `CC(C)(C)C1CCC2c3c([nH]c4ccccc34)C3C(=O)N(c4ccccc4Cl)C(=O)C3C2C1` (configuration not stated), the EC50 is over 200 µM and the IC50 worked out at 16.6 µM. For `Cc1cccc(C(C)(C)C)c1NC(=O)CCc1nc(=S)[nH][nH]1`, in that order: over 562 µM and 240 µM. The like results for `S=P(c1ccccc1)(N1CCCCC1)N1CCCCC1` were, in that order, over 43.7 µM and over 43.7 µM. Consider `CCOC(=O)C1(C)C(=O)CC2c3nc4ccccc4cc3CN2C1=O` (configuration not stated), for which the EC50 was over 10 µM and the IC50 was over 10 µM. As for `N#CNC(N)=NC1=CC(=O)C(=O)c2ccccc21`, the EC50 was over 30.2 µM and the IC50 is 17.4 µM. For `COc1ccc(OC)c(CNc2ccc(C(=O)O)cc2)c1`, in that order: over 200 µM and over 200 µM. With `NC(Cc1ccc(CP(=O)(O)O)cc1)C(=O)O` (configuration not stated), the EC50 is over 200 µM and the IC50 was over 200 µM.
